Data from article PMC12501029, “Discovery of a CNS active GSK3 degrader using orthogonally reactive linker screening” (Nature Communications, 2025).
Like-named read-outs stand apart in the source and are kept apart here.

How the values were obtained:
[1] = Plasma protein binding, equilibrium dialysis, mouse; assay type: in vitro ADME; conditions: female, CD1, mouse
Description: A 96-well equilibrium dialysis apparatus was used to determine the free fraction in plasma for each compound (HT Dialysis LLC, Gales Ferry, CT). Membranes (12–14 kDA cut-off) were conditioned in deionised water for 60 min, followed by conditioning in 80:20 deionised water: ethanol for 20 min, and then rinsed in isotonic buffer before use. Female CD1 mouse, Male rat Han Wistar and human plasma was removed from the freezer and allowed to thaw on the day of experiment. Thawed plasma was then centrifuged (Allegra X12-R, Beckman Coulter, USA), spiked with test compound (final concentration 10 μg/mL), and 150 μL aliquots (n = 6 replicate determinations) loaded into the 96-well equilibrium dialysis plate. Dialysis vs isotonic buffer (150 μL) was carried out for 5 h in a temperature-controlled incubator at ca. 37 °C (Barworld Scientific Ltd, UK) using an orbital microplate shaker at 100 revolutions/minute (Barworld Scientific Ltd, UK). At the end of the incubation period, 50 μL aliquots of plasma or buffer were transferred to a 96-well 2.1 mL Waters ^TM plate and the composition in each well balanced with control fluid (50 μL), such that the volume of buffer to plasma is the same. Sample extraction was performed by the addition of 200 μL of acetonitrile containing an appropriate internal standard. Samples were allowed to mix for 1 min and then centrifuged at 3000 rpm in 96-well blocks for 15 min (Allegra X12-R, Beckman Coulter, USA), after which 150 μL of supernatant was removed to 50 μL of water. All samples were analysed by UPLC-MS/MS. The unbound fraction was determined as the ratio of the peak area in buffer to that in plasma.

GSK3α = molecular target: T1, GSK3α (Homo sapiens, UniProt P49840); assay: Immunoblot degradation of endogenous GSK3α in HEK293 cells; assay type: cell-based; conditions: 10 nM, 2 h
T1 construct: Endogenous GSK3 paralog degradation with compounds 24 and 26 and negative controls 27 and 28 in HEK293 cells; host or cells: HEK293
Description: (§1) HEK293, HAP1, HAP1 CRBN KO and SH-SY5Y cells were plated in either 6 cm plates or 6-well plates at varying densities (0.5–0.7 × 10^6 cells per plate or wells), and MEF cells were plated in 10 cm plates (1–1.2 × 10^6 cells per plate) depending on experimental set up in respective culturing condition as described above. Stock solutions of compounds were prepared as 10 mM in DMSO (Sigma–Aldrich). Working dilutions were made up fresh in DMSO and culturing media or differentiation media was refreshed prior to any compound treatments. For mode of action studies, cells were pre-treated with inhibitors for 2 h: 1 µM MG132 (Merck, 474790-5 mg), 1 µM MLN4924 (Merck, 5054770001) or 1 µM GSK3 inhibitor (compound 29), before treating with PROTACs for 2, 4 or 24 h as indicated in figure legends. Cells were washed twice with ice-cold PBS (Gibco), harvested in PBS and pelleted, cells were resuspended in RIPA buffer supplemented with complete EDTA-free protease inhibitor cocktail (Roche,11873580001, 1/10 mL) and phosSTOP (Roche, 04906845001, 1 tablet/10 mL) for 20 min lysis on ice then cleared via centrifugation at 16,000 × g, 4 °C for 20 min. […] Following clearance of lysates, protein concentrations were determined by the BCA assay (Fisher Scientific, 23225) or Bradford assay (Bio-rad). […]

GSK3 = assay: Mode of action rescue studies in HEK293 cells (pre-treatment with MG132, MLN4924 or GSK3 inhibitor 29); assay type: cell-based, human; conditions: 2 h pre-treatment, 1 µM each inhibitor
Description: as §1

[2] = 10 μg/mL, 5 h dialysis, read-out: Plasma Protein Binding (Fu) Mu

T1 sequence (P49840 whole entry): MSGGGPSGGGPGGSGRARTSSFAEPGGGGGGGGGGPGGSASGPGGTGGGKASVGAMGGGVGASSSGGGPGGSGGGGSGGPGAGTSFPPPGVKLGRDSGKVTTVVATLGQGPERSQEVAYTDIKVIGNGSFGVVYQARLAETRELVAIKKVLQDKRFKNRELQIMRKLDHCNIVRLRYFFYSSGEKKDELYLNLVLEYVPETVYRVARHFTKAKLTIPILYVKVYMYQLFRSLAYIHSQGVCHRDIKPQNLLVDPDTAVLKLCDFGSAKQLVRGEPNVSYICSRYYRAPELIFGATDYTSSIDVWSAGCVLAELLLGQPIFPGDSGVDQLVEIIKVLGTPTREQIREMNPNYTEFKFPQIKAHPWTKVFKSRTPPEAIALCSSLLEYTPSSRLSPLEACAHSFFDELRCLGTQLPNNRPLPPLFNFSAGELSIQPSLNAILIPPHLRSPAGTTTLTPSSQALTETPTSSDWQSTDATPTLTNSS

For `Cn1nc(N2CCC(=O)NC2=O)c2ccc(CN3CCN(Cc4ccc(-c5cn(-c6ccc(-c7cn8nccc(C(=O)Nc9cnccc9N9CCOCC9)c8n7)cc6)nn5)nc4)CC3)cc21` [compound 24], which fraction unbound at 5 h, 10 μg/mL [1, 2] is on record?
Its fraction unbound at 5 h, 10 μg/mL is 0.0052.

What about the fraction unbound at 5 h, 10 μg/mL ([1]; equilibrium dialysis, read-out: unbound fraction in mouse plasma) of the same compound?
The fraction unbound at 5 h, 10 μg/mL was 0.005.

What about the “endogenous GSK3α degradation” value (GSK3α) of the same compound?
The value was “almost complete”.

What about the “GSK3 degradation in presence of MG132, MLN4924 or GSK3 inhibitor 29” value (GSK3) of the same compound?
Its value is “rescued”.

Which results are given for `Cn1nc(N2CCC(=O)NC2=O)c2ccc(CN3CCN(CCCc4cn(-c5ccc(-c6cn7nccc(C(=O)Nc8cnccc8N8CCOCC8)c7n6)cc5)nn4)CC3)cc21` [compound 26]?
fraction unbound at 5 h, 10 μg/mL [1, 2]: 0.021; endogenous GSK3α degradation (GSK3α): almost complete; GSK3 degradation in presence of MG132, MLN4924 or GSK3 inhibitor 29 (GSK3): rescued
